Data taken from ChEMBL document CHEMBL1933035, “Discovery of pyrrolidine-based β-secretase inhibitors: lead advancement through conformational design for maintenance of ligand binding efficiency” (Bioorg Med Chem Lett, 2012).

What was measured:
[1] = Clearance in rat at 2 mg/kg, iv; assay type: ADME, organism-based; parameters: dose 2 mg/kg, route intravenous; conditions: in vivo
[2] = Oral bioavailability in rat at 10 mg/kg; assay type: ADME, organism-based; conditions: in vivo

With `O=C([C@@H]1CNC[C@]12CCCc1nc(Cl)ccc12)N1CC[C@@H](c2ccccc2)C[C@H]1C1CCCCC1` the clearance [1] was 15 mL/min/kg and the bioavailability [2] was 44%.
